The source of these data is patent US20260274832A1, “COMPOUNDS AND THEIR USE IN TREATING CANCER” (ASTRAZENECA AB, priority 2023, published 2026).

Assay [1] concerns the target T1, AR (L702H) in LNCaP cells (Homo sapiens, UniProt P10275, L702H/T878A).
T1 construct: engineered to introduce the mutation L702H into the AR gene using CRISPR/Cas9; endogenous in cells; host or cells: LNCaP cells edited by CRISPR/Cas9 at the AR gene
Kind of assay: LNCaP Androgen Receptor L702H Imaging Assay (LNCaP cells engineered by CRISPR/Cas9). The conditions noted are these: LNCaP cells with AR L702H mutation, 24 h incubation; for DC50: concentration giving 50% of maximum degradation of AR (L702H) per curve fit; for Dmax: LNCaP, maximum degradation observed, normalized as % of positive control. It counts as cell-based. In a few lines: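 AR (L702H) degradation, expressed as DC50 and Dmax from curve fits normalized to a positive degrader control, was measured by high-content imaging of anti-AR immunofluorescence. The engineered LNCaP line was dosed over 12 concentrations for 24 h, 0.3% DMSO final, before PFA fixation.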

In assay [2] the target is T2, AR (AR-full length) in LNCaP cells (Homo sapiens, UniProt P10275, T878A).
T2 construct: the prostate cancer cell line LNCaP (expressing AR-full length); endogenous in cells; host or cells: LNCaP
T2 sequence (P10275 whole entry T878A): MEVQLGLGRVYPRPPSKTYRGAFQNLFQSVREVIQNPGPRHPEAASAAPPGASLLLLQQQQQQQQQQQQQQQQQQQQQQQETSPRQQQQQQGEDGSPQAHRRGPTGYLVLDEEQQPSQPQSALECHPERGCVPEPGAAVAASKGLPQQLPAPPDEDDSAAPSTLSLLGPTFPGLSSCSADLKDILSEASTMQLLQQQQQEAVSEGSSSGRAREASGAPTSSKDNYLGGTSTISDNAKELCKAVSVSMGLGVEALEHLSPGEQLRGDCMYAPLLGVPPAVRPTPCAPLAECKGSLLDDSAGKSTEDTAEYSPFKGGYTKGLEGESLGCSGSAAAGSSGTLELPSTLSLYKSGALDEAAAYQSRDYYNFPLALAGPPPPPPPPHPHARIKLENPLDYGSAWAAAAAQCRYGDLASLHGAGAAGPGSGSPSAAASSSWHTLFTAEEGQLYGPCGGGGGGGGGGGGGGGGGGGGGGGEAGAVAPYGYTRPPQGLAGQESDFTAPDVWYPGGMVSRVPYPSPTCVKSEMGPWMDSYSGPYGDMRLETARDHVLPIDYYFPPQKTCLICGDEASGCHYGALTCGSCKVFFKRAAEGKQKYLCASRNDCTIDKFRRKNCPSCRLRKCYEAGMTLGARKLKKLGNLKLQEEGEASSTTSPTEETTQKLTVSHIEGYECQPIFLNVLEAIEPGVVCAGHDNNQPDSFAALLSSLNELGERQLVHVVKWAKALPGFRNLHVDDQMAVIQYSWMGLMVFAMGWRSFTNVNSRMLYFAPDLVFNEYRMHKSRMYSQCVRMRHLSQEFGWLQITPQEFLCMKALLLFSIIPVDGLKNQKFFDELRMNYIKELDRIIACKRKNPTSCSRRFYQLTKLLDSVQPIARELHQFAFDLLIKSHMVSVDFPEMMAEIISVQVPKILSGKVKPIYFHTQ
T2 sequence (Q96SW2 whole entry partner): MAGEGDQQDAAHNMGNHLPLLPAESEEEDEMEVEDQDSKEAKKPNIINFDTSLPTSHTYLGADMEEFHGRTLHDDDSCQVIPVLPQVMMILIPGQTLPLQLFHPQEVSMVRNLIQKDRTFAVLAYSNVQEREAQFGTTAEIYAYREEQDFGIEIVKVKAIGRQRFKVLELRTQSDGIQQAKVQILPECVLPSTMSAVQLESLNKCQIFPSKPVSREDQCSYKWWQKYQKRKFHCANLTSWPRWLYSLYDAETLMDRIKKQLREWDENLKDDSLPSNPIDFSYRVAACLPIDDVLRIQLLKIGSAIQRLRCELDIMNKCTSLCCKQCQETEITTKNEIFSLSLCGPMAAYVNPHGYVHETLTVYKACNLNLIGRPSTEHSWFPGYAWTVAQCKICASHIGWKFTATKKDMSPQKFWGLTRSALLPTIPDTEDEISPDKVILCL
Kind of assay: LNCaP Androgen Receptor Imaging Assay (immunofluorescence of endogenous nuclear AR). It counts as cell-based. The following applies: 24 h incubation; for DC50: concentration giving 50% of maximum degradation of AR per curve fit, single experiment or average of two or more; for Dmax: LNCaP, maximum degradation observed, normalized as % of positive control (prior art AR PROTAC at 3 μM). Summed up:
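Endogenous nuclear AR level was imaged by immunofluorescence after 24 h compound exposure (12-point dose response, 0.3% DMSO, 37° C./5% CO2) in LNCaP cells. Data were expressed as % of a 3 μM prior-art AR PROTAC control and fitted (bell fit where a hook appeared) to give DC50 and maximum degradation Dmax.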

T1 sequence (P10275 whole entry L702H/T878A): as the sequence (P10275 whole entry T878A) above, with L702H counted along it
T1 sequence (Q96SW2 whole entry partner): as the sequence (Q96SW2 whole entry partner) above

For orientation: DC50 means the concentration giving 50% degradation. Higher therefore signals degradation only at high concentration. In general, Dmax refers to the greatest extent of degradation seen. Regarding `N#Cc1c[nH]c2c(N3CCC(NC(=O)c4ccc(N5CCC(N6CCN(c7cc8c(cc7F)C(=O)N(C7CCC(=O)NC7=O)C8=O)CC6)CC5)cn4)CC3)ccc(Cl)c12` (stereo not drawn) [Example 166, N-[1-(4-Chloro-3-cyano-1H-indol-7-yl)piperidin-4-yl]-5-(4-{4-[2-(2,6-dioxopiperidin-3-yl)-6-fluoro-1,3-dioxo-2,3-dihydro-1H-isoindol-5-yl]piperazin-1-yl}piperidin-1-yl)pyridine-2-carboxamide], in assay [1], it took 37 nM to reach half-maximal degradation (DC50) and the Dmax was 92%. Also, in assay [2], the DC50 came out at 4 nM and the Dmax was found to be 85%.

For the compound `N#Cc1c[nH]c2c(N3CCC(NC(=O)c4ccc(N5CCC(CN6CCC(n7ccc8c(N9CCC(=O)NC9=O)cccc87)CC6)CC5)cn4)CC3)ccc(Cl)c12` [Example 167, N-[1-(4-Chloro-3-cyano-1H-indol-7-yl)piperidin-4-yl]-5-[4-({4-[4-(2,4-dioxo-1,3-diazinan-1-yl)-1H-indol-1-yl]piperidin-1-yl}methyl)piperidin-1-yl]pyridine-2-carboxamide], the DC50 in assay [1] was 2 nM; in assay [2] it was 1 nM. Also, the results for the Dmax in assay [1] and in assay [2] were 100% and 101%, respectively.

Consider `N#Cc1c[nH]c2c(N3CCC(NC(=O)c4ccc(N5CCC(CN6CCN(c7ccc8c(c7)CN(C7CCC(=O)NC7=O)C8=O)CC6)CC5)cn4)CC3)ccc(Cl)c12` (stereo not drawn) [Example 168, N-[1-(4-Chloro-3-cyano-1H-indol-7-yl)piperidin-4-yl]-5-[4-({4-[2-(2,6-dioxopiperidin-3-yl)-1-oxo-2,3-dihydro-1H-isoindol-5-yl]piperazin-1-yl}methyl)piperidin-1-yl]pyridine-2-carboxamide], for which, in assay [1], it took 2 nM to reach half-maximal degradation (DC50) and the Dmax is 96%. Moreover, in assay [2], the DC50 is 1 nM and the Dmax was found to be 87%.

For `N#Cc1c[nH]c2c(N3CCC(NC(=O)c4ccc(N5CCC(CN6CCN(c7cc8c(cc7F)C(=O)N(C7CCC(=O)NC7=O)C8=O)CC6)CC5)cn4)CC3)ccc(Cl)c12` (stereo not drawn) [Example 169, N-[1-(4-Chloro-3-cyano-1H-indol-7-yl)piperidin-4-yl]-5-[4-({4-[2-(2,6-dioxopiperidin-3-yl)-6-fluoro-1,3-dioxo-2,3-dihydro-1H-isoindol-5-yl]piperazin-1-yl}methyl)piperidin-1-yl]pyridine-2-carboxamide], in assay [1], it took 23 nM to reach half-maximal degradation (DC50) and the Dmax was determined as 94%. Also, in assay [2], the DC50 amounted to 5 nM and the Dmax was determined as 86%.

For the compound `N#Cc1n[nH]c2c(N3CCC(NC(=O)c4ccc(N5CCC(CN6CCC(n7ccc8c(N9CCC(=O)NC9=O)cccc87)CC6)CC5)cn4)CC3)ccc(Cl)c12` [Example 170, N-[1-(4-Chloro-3-cyano-1H-indazol-7-yl)piperidin-4-yl]-5-[4-({4-[4-(2,4-dioxo-1,3-diazinan-1-yl)-1H-indol-1-yl]piperidin-1-yl}methyl)piperidin-1-yl]pyridine-2-carboxamide], in assay [1], the DC50 is 2 nM and the Dmax worked out at 101%. In assay [2], half-maximal degradation (DC50) was put at 1 nM and the Dmax was determined as 100%.

On to `Cc1ccc(N2CCC(NC(=O)c3ccc(N4CCC(CN5CCN(c6cc7c(cc6F)C(=O)N(C6CCC(=O)NC6=O)C7=O)CC5)CC4)cn3)CC2)c2[nH]cc(C#N)c12` (stereo not drawn) [Example 171, N-[1-(3-Cyano-4-methyl-1H-indol-7-yl)piperidin-4-yl]-5-[4-({4-[2-(2,6-dioxopiperidin-3-yl)-6-fluoro-1,3-dioxo-2,3-dihydro-1H-isoindol-5-yl]piperazin-1-yl}methyl)piperidin-1-yl]pyridine-2-carboxamide], for which, in assay [1], it took 36 nM to reach half-maximal degradation (DC50) and the Dmax amounted to 85%. Also, in assay [2], the DC50 is 5 nM and the Dmax worked out at 96%.

`Cc1ccc(N2CCC(NC(=O)c3ccc(N4CCC(CN5CCN(c6ccc7c(c6)CN(C6CCC(=O)NC6=O)C7=O)CC5)CC4)cn3)CC2)c2[nH]cc(C#N)c12` (stereo not drawn) [Example 172, N-[1-(3-Cyano-4-methyl-1H-indol-7-yl)piperidin-4-yl]-5-[4-({4-[2-(2,6-dioxopiperidin-3-yl)-1-oxo-2,3-dihydro-1H-isoindol-5-yl]piperazin-1-yl}methyl)piperidin-1-yl]pyridine-2-carboxamide]: in assay [1], the DC50 was determined as 4 nM and the Dmax came out at 94%. For the same compound, in assay [2], the DC50 stood at 1 nM and the Dmax turned out to be 94%.

In the case of `N#Cc1c[nH]c2c(N3CCC(NC(=O)c4ccc(N5CCC(CN6CCC(n7ccc8c(N9CCC(=O)NC9=O)cccc87)CC6)CC5)cc4)CC3)ccc(Cl)c12` [Example 173, N-[1-(4-Chloro-3-cyano-1H-indol-7-yl)piperidin-4-yl]-4-[4-({4-[4-(2,4-dioxo-1,3-diazinan-1-yl)-1H-indol-1-yl]piperidin-1-yl}methyl)piperidin-1-yl]benzamide], in assay [1], the DC50 amounted to 2 nM and the Dmax was found to be 109%. Also, in assay [2], half-maximal degradation (DC50) was put at 1 nM and the Dmax came to 102%.

Turning to `N#Cc1c[nH]c2c(C3CCC(NC(=O)c4ccc(N5CCC(CN6CCC(n7ccc8c(N9CCC(=O)NC9=O)cccc87)CC6)CC5)cc4F)CC3)ccc(Cl)c12` (stereo not drawn) [Example 174, N-[4-(4-Chloro-3-cyano-1H-indol-7-yl)cyclohexyl]-4-[4-({4-[4-(2,4-dioxo-1,3-diazinan-1-yl)-1H-indol-1-yl]piperidin-1-yl}methyl)piperidin-1-yl]-2-fluorobenzamide], in assay [1], the DC50 is 13 nM and the Dmax worked out at 104%. In assay [2], the DC50 is 3 nM and the Dmax is 106%.

As to `N#Cc1c[nH]c2c(N3CCC(NC(=O)c4c(F)cc(N5CCC(CN6CCC(n7ccc8c(N9CCC(=O)NC9=O)cccc87)CC6)CC5)cc4F)CC3)ccc(Cl)c12` [Example 175, N-[1-(4-Chloro-3-cyano-1H-indol-7-yl)piperidin-4-yl]-4-[4-({4-[4-(2,4-dioxo-1,3-diazinan-1-yl)-1H-indol-1-yl]piperidin-1-yl}methyl)piperidin-1-yl]-2,6-difluorobenzamide], in assay [1], the DC50 was 1 nM and the Dmax came out at 109%. In assay [2], half-maximal degradation (DC50) was put at 1 nM and the Dmax worked out at 107%.

With `N#Cc1c[nH]c2c(N3CCC(NC(=O)c4cnc(N5CCC(CN6CCC(n7ccc8c(N9CCC(=O)NC9=O)cccc87)CC6)CC5)cn4)CC3)ccc(Cl)c12` [Example 176, N-[1-(4-Chloro-3-cyano-1H-indol-7-yl)piperidin-4-yl]-5-[4-({4-[4-(2,4-dioxo-1,3-diazinan-1-yl)-1H-indol-1-yl]piperidin-1-yl}methyl)piperidin-1-yl]pyrazine-2-carb oxamide], in assay [1], the DC50 stood at 3 nM and the Dmax came out at 102%. Besides, in assay [2], the DC50 came to 1 nM and the Dmax is 104%.

With `N#Cc1c[nH]c2c(N3CCC(NC(=O)c4ncc(N5CCC(CN6CCC(n7ccc8c(N9CCC(=O)NC9=O)cccc87)CC6)CC5)cn4)CC3)ccc(Cl)c12` [Example 177, N-[1-(4-Chloro-3-cyano-1H-indol-7-yl)piperidin-4-yl]-5-[4-({4-[4-(2,4-dioxo-1,3-diazinan-1-yl)-1H-indol-1-yl]piperidin-1-yl}methyl)piperidin-1-yl]pyrimidine-2-carboxamide], the figures for the DC50 in assay [1] and in assay [2] were 15 nM and 2 nM, respectively. Further, the Dmax in assay [1] was 40%; in assay [2] it was 107%.
